Laboratory results: ChEMBL document CHEMBL1201861, “Genomics of Drug Sensitity in Cancer screening data, Wellcome Trust Sanger Institute”
pIC50: −log10 of the molar value.

How the values were obtained:
Assay in all cases: cells
LNCaP-Clone-FGC = format: functional, cell-based, Homo sapiens; settings: Homo sapiens, LNCaP-Clone-FGC
Description: SANGER: Inhibition of human LNCaP-Clone-FGC cell growth in a cell viability assay.

SK-UT-1 = format: functional, cell-based, Homo sapiens; settings: Homo sapiens, SK-UT-1;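 note: growth inhibition of SK-UT-1 cells, measured by a cell viability assay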
Description: SANGER: Inhibition of human SK-UT-1 cell growth in a cell viability assay.

SW 954 = format: functional, cell-based, Homo sapiens; settings: Homo sapiens, SW 954;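 note: growth inhibition of SW954 human cancer cells, read out as cell viability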
Description: SANGER: Inhibition of human SW954 cell growth in a cell viability assay.

SCH = format: functional, cell-based, Homo sapiens; settings: Homo sapiens, SCH;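 note: growth inhibition of human SCH cells, read out in a cell viability assay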
Description: SANGER: Inhibition of human SCH cell growth in a cell viability assay.

MC116 = format: functional, cell-based, Homo sapiens; settings: Homo sapiens, MC116;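 note: growth inhibition of MC116 cells, read out with a cell viability assay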
Description: SANGER: Inhibition of human MC116 cell growth in a cell viability assay.

NCI-H226 = format: functional, cell-based, Homo sapiens; settings: Homo sapiens, NCI-H226;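 note: cell viability read-out used to gauge growth inhibition of the cells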
Description: SANGER: Inhibition of human NCI-H226 cell growth in a cell viability assay.

DU-4475 = format: functional, cell-based, Homo sapiens; settings: Homo sapiens, DU-4475
Description: SANGER: Inhibition of human DU-4475 cell growth in a cell viability assay.

A4-Fuk = format: functional, cell-based, Homo sapiens; settings: Homo sapiens, A4-Fuk;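 note: growth inhibition of A4-Fuk cells, read out by a cell viability assay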
Description: SANGER: Inhibition of human A4-Fuk cell growth in a cell viability assay.

EW-16 = format: functional, cell-based, Homo sapiens; settings: Homo sapiens, EW-16;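 note: growth inhibition of human EW-16 cells, read out as cell viability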
Description: SANGER: Inhibition of human EW-16 cell growth in a cell viability assay.

LB771-HNC = format: functional, cell-based; settings: Homo sapiens;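 note: growth inhibition of LB771-HNC human cells, read out with a cell viability assay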
Description: SANGER: Inhibition of human LB771-HNC cell growth in a cell viability assay.

A253 cell line = format: functional, cell-based, Homo sapiens; settings: Homo sapiens, A253;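 note: growth inhibition of A253 cells, read out with a cell viability assay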
Description: SANGER: Inhibition of human A253 cell growth in a cell viability assay.

LS-411N = format: functional, cell-based, Homo sapiens; settings: Homo sapiens, LS-411N
NCI-H1155 = format: functional, cell-based, Homo sapiens; settings: Homo sapiens, NCI-H1155;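 note: cell growth inhibition measured by a viability assay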
Description: SANGER: Inhibition of human NCI-H1155 cell growth in a cell viability assay.

KURAMOCHI = format: functional, cell-based, Homo sapiens; settings: Homo sapiens, KURAMOCHI;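 note: growth inhibition of KURAMOCHI cells, read out with a cell viability assay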
Description: SANGER: Inhibition of human KURAMOCHI cell growth in a cell viability assay.

KU812 cell line = format: functional, cell-based, Homo sapiens; settings: Homo sapiens, KU812;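 note: growth inhibition of KU812 cells, read out with a cell viability assay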
Description: SANGER: Inhibition of human KU812 cell growth in a cell viability assay.

HL-60 = format: functional, cell-based, Homo sapiens; settings: Homo sapiens, HL-60;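 note: growth inhibition of human HL-60 cells, read out with a cell viability assay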
Description: SANGER: Inhibition of human HL-60 cell growth in a cell viability assay.

EKVX = format: functional, cell-based, Homo sapiens; settings: Homo sapiens, EKVX;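 note: growth inhibition of human EKVX cells, read out with a cell viability assay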
Description: SANGER: Inhibition of human EKVX cell growth in a cell viability assay.

KARPAS-45 = format: functional, cell-based, Homo sapiens; settings: Homo sapiens, KARPAS-45;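 note: inhibition of cell line growth, read out through a viability assay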
Description: SANGER: Inhibition of human KARPAS-45 cell growth in a cell viability assay.

DOHH-2 = format: functional, cell-based, Homo sapiens; settings: Homo sapiens, DOHH-2;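 note: growth inhibition of human DOHH-2 cells, read out with a cell viability assay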
Description: SANGER: Inhibition of human DOHH-2 cell growth in a cell viability assay.

JVM-2 = format: functional, cell-based, Homo sapiens; settings: Homo sapiens, JVM-2;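 note: growth inhibition of JVM-2 cells determined by a cell viability assay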
Description: SANGER: Inhibition of human JVM-2 cell growth in a cell viability assay.

LB1047-RCC = format: functional, cell-based, Homo sapiens; settings: Homo sapiens, LB1047-RCC;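 note: inhibition of cell growth, determined with a cell viability assay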
Description: SANGER: Inhibition of human LB1047-RCC cell growth in a cell viability assay.

P30-OHK = format: functional, cell-based, Homo sapiens; settings: Homo sapiens, P30-OHK;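 note: growth inhibition of the P30-OHK cell line, read out with a cell viability assay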
Description: SANGER: Inhibition of human P30-OHK cell growth in a cell viability assay.

J-RT3-T3-5 = format: functional, cell-based, Homo sapiens; settings: Homo sapiens, J-RT3-T3-5;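 note: cell viability assay measuring growth inhibition of human J-RT3-T3-5 cells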
Description: SANGER: Inhibition of human J-RT3-T3-5 cell growth in a cell viability assay.

SK-PN-DW = format: functional, cell-based, Homo sapiens; settings: Homo sapiens, SK-PN-DW;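 note: growth inhibition measured with a viability assay on these cells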
HT = format: functional, cell-based, Homo sapiens; settings: Homo sapiens, HT
CAS-1 = format: functional, cell-based, Homo sapiens; settings: Homo sapiens, CAS-1;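 note: growth inhibition of CAS-1 cells, measured with a cell viability assay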
Description: SANGER: Inhibition of human CAS-1 cell growth in a cell viability assay.

LAMA-84 = format: functional, cell-based, Homo sapiens; settings: Homo sapiens, LAMA-84;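 note: growth inhibition of LAMA-84 cells, read out with a cell viability assay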
LU-134-A = format: functional, cell-based, Homo sapiens; settings: Homo sapiens, LU-134-A
Description: SANGER: Inhibition of human LU-134-A cell growth in a cell viability assay.

ES3 = format: functional, cell-based, Homo sapiens; settings: Homo sapiens, ES3;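 note: growth inhibition of ES3 cells, read out with a cell viability assay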
Description: SANGER: Inhibition of human ES3 cell growth in a cell viability assay.

CTV-1 = format: functional, cell-based, Homo sapiens; settings: Homo sapiens, CTV-1;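 note: growth inhibition of the cell line, read out with a cell viability assay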
Description: SANGER: Inhibition of human CTV-1 cell growth in a cell viability assay.

ACN = format: functional, cell-based, Homo sapiens; settings: Homo sapiens, ACN;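 note: growth inhibition of the human ACN cell line, read out via cell viability testing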
Description: SANGER: Inhibition of human ACN cell growth in a cell viability assay.

UACC-257 = format: functional, cell-based, Homo sapiens; settings: Homo sapiens, UACC-257
Description: SANGER: Inhibition of human UACC-257 cell growth in a cell viability assay.

TE-1 = format: functional, cell-based, Homo sapiens; settings: Homo sapiens, TE-1
TE-12 = format: functional, cell-based, Homo sapiens; settings: Homo sapiens, TE-12;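 note: growth inhibition of TE-12 cells, read out by a cell viability assay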
Description: SANGER: Inhibition of human TE-12 cell growth in a cell viability assay.

NKM-1 = format: functional, cell-based, Homo sapiens; settings: Homo sapiens, NKM-1;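 note: growth inhibition of NKM-1 cells, read out with a cell viability assay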
Description: SANGER: Inhibition of human NKM-1 cell growth in a cell viability assay.

LC-2-ad = format: functional, cell-based, Homo sapiens; settings: Homo sapiens, LC-2-ad;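 note: growth inhibition of human LC-2-ad cells, read out with a cell viability assay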
Description: SANGER: Inhibition of human LC-2-ad cell growth in a cell viability assay.

NB10 = format: functional, cell-based, Homo sapiens; settings: Homo sapiens, NB10;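 note: growth inhibition of NB10 cells, read out by a cell viability assay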
Description: SANGER: Inhibition of human NB10 cell growth in a cell viability assay.

HDLM-2 = format: functional, cell-based, Homo sapiens; settings: Homo sapiens, HDLM-2;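 note: cell viability assay measuring suppression of HDLM-2 proliferation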
Description: SANGER: Inhibition of human HDLM-2 cell growth in a cell viability assay.

ES4 = format: functional, cell-based, Homo sapiens; settings: Homo sapiens, ES4;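 note: growth inhibition of human ES4 cells, read out by a cell viability assay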
KY821 = format: functional, cell-based, Homo sapiens; settings: Homo sapiens, KY821;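 note: growth inhibition of human KY821 cells, read out by a cell viability assay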
Description: SANGER: Inhibition of human KY821 cell growth in a cell viability assay.

LAN-6 = format: functional, cell-based, Homo sapiens; settings: Homo sapiens, LAN-6;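 note: growth inhibition of LAN-6 cells, determined with a cell viability assay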
Description: SANGER: Inhibition of human LAN-6 cell growth in a cell viability assay.

HCC2157 = format: functional, cell-based, Homo sapiens; settings: Homo sapiens, HCC2157;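 note: growth inhibition of the cancer cell line, read out as cell viability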
Description: SANGER: Inhibition of human HCC2157 cell growth in a cell viability assay.

GI-1 = format: functional, cell-based, Homo sapiens; settings: Homo sapiens, GI-1;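 note: growth inhibition of human GI-1 cells, measured with a cell viability readout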
RXF 393 = format: functional, cell-based, Homo sapiens; settings: Homo sapiens, RXF 393;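 note: growth inhibition of human RXF 393 cells, read out with a cell viability assay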
Description: SANGER: Inhibition of human RXF393 cell growth in a cell viability assay.

TGBC24TKB = format: functional, cell-based; settings: Homo sapiens;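 note: growth inhibition of human TGBC24TKB cells, read out with a cell viability assay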
Description: SANGER: Inhibition of human TGBC24TKB cell growth in a cell viability assay.

TE-11 = format: functional, cell-based; settings: Homo sapiens;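 note: growth inhibition of human TE-11 cells, read out by a cell viability assay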
Description: SANGER: Inhibition of human TE-11 cell growth in a cell viability assay.

A498 = format: functional, cell-based, Homo sapiens; settings: Homo sapiens, A498;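 note: growth inhibition of human A498 cells, read out with a cell viability assay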
Description: SANGER: Inhibition of human A498 cell growth in a cell viability assay.

CC(C)C[C@H](NC(=O)[C@H](Cc1ccccc1)NC(=O)c1cnccn1)B(O)O [BORTEZOMIB]
pIC50 (LNCaP-Clone-FGC): < 7.70
pIC50 (SK-UT-1): 9.79
pIC50 (SW 954): 8.54
pIC50 (SCH): < 7.70
pIC50 (MC116): < 7.70
pIC50 (NCI-H226): < 7.70
pIC50 (DU-4475): 8.87
pIC50 (A4-Fuk): 9.21
pIC50 (EW-16): 8.56
pIC50 (LB771-HNC): 9.32
pIC50 (A253 cell line): 9.68
pIC50 (LS-411N): 8.82
pIC50 (NCI-H1155): < 7.70
pIC50 (KURAMOCHI): 8.76
pIC50 (KU812 cell line): 8.62
pIC50 (HL-60): 8.33
pIC50 (EKVX): 8.67
pIC50 (KARPAS-45): 8.45
pIC50 (DOHH-2): < 7.70
pIC50 (JVM-2): 8.14
pIC50 (LB1047-RCC): 8.59
pIC50 (P30-OHK): < 7.70
pIC50 (J-RT3-T3-5): < 7.70
pIC50 (SK-PN-DW): 8.50
pIC50 (HT): 8.52
pIC50 (CAS-1): 8.86
pIC50 (LAMA-84): 8.46
pIC50 (LU-134-A): 8.13
pIC50 (ES3): < 7.70
pIC50 (CTV-1): 8.55
pIC50 (ACN): 9.38
pIC50 (UACC-257): 9.15
pIC50 (TE-1): 8.99
pIC50 (TE-12): 8.37
pIC50 (NKM-1): 8.70
pIC50 (LC-2-ad): 8.96
pIC50 (NB10): 8.63
pIC50 (HDLM-2): < 7.70
pIC50 (ES4): 8.67
pIC50 (KY821): < 7.70
pIC50 (LAN-6): 8.69
pIC50 (HCC2157): < 7.70
pIC50 (GI-1): 9.12
pIC50 (RXF 393): 9.04

C[C@@H](Oc1cc(-c2cnn(C3CCNCC3)c2)cnc1N)c1c(Cl)ccc(F)c1Cl [CRIZOTINIB]
pIC50 (LNCaP-Clone-FGC): < 5.70
pIC50 (SK-UT-1): < 5.70
pIC50 (SW 954): < 5.70
pIC50 (MC116): < 5.70
pIC50 (NCI-H226): < 5.70
pIC50 (DU-4475): < 5.70
pIC50 (A4-Fuk): < 5.70
pIC50 (EW-16): < 5.70
pIC50 (LB771-HNC): < 5.70
pIC50 (A253 cell line): < 5.70
pIC50 (LS-411N): < 5.70
pIC50 (NCI-H1155): < 5.70
pIC50 (KURAMOCHI): < 5.70
pIC50 (KU812 cell line): < 5.70
pIC50 (HL-60): < 5.70
pIC50 (EKVX): < 5.70
pIC50 (KARPAS-45): < 5.70
pIC50 (DOHH-2): < 5.70
pIC50 (TGBC24TKB): < 5.70
pIC50 (JVM-2): < 5.70
pIC50 (LB1047-RCC): < 5.70
pIC50 (P30-OHK): < 5.70
pIC50 (J-RT3-T3-5): < 5.70
pIC50 (SK-PN-DW): < 5.70
pIC50 (HT): < 5.70
pIC50 (CAS-1): < 5.70
pIC50 (LAMA-84): 5.86
pIC50 (LU-134-A): < 5.70
pIC50 (ES3): < 5.70
pIC50 (CTV-1): 6.22
pIC50 (ACN): < 5.70
pIC50 (UACC-257): < 5.70
pIC50 (TE-1): < 5.70
pIC50 (TE-12): < 5.70
pIC50 (NKM-1): < 5.70
pIC50 (LC-2-ad): < 5.70
pIC50 (NB10): < 5.70
pIC50 (HDLM-2): < 5.70
pIC50 (ES4): < 5.70
pIC50 (KY821): < 5.70
pIC50 (LAN-6): < 5.70
pIC50 (HCC2157): < 5.70
pIC50 (GI-1): < 5.70
pIC50 (TE-11): < 5.70
pIC50 (RXF 393): < 5.70
pIC50 (A498): < 5.70
